# Active and inactive are the calls of the source. No cut-off for these calls is given here.
# Experiments:
# [1] = molecular target: T1, von Hippel-Lindau disease tumor suppressor/Epidermal growth factor receptor (Homo sapiens, UniProt P00533+P40337); experiment: Protac activity at VHL/EGFR deletion19 mutant in human PC9 cells assessed as induction of EGFR degradation; format: cell-based; conditions: pc-9
# [2] = molecular target: von Hippel-Lindau disease tumor suppressor/Epidermal growth factor receptor (Homo sapiens, UniProt P00533+P40337, T790M/L858R); experiment: Protac activity at VHL/EGFR L858R/T790M mutant in human NCI-H1975 cells assessed as induction of EGFR degradation; format: cell-based
# [3] = tested on: NCI-H1975; experiment: Antiproliferative activity against human NCI-H1975 cells expressing EGFR L858R/T790M mutant assessed as inhibition of cell proliferation; format: functional, cell-based
# [4] = tested on: HCC827; experiment: Antiproliferative activity against human […] assessed as inhibition of cell proliferation incubated for 72 hrs by MTT assay; format: functional, cell-based; conditions: HCC827, 72 h
# [5] = tested on: von Hippel-Lindau disease tumor suppressor/Epidermal growth factor receptor (Homo sapiens), P00533+P40337 [UNDEFINED MUTATION]; experiment: Protac activity at VHL/EGFR/deletion19 in human HCC827 cells assessed as induction of EGFR degradation at 30 nM incubated for 24 hrs by Western blot analysis relative to control; format: cell-based
# [6] = tested on: von Hippel-Lindau disease tumor suppressor/Epidermal growth factor receptor (Homo sapiens), P00533+P40337 [L858R,T790M]; experiment: Protac activity at VHL/EGFR L858R/T790M mutant in human NCI-H1975 cells assessed as induction of EGFR degradation at 100 nM incubated for 24 hrs by Western blot analysis relative to control; format: cell-based
# [7] = tested on: A-431; experiment: Antiproliferative activity against human A-431 cells expressing EGFR wildtype assessed as inhibition of cell proliferation incubated for 72 hrs by MTT assay; format: functional, cell-based; conditions: A-431, 72 h
# [8] = tested on: NCI-H1975; experiment: Antiproliferative activity against human NCI-H1975 cells expressing EGFR L858R/T790M mutant assessed as inhibition of cell proliferation incubated for 72 hrs by MTT assay; format: functional, cell-based; conditions: NCI-H1975, 72 h
# [9] = tested on: von Hippel-Lindau disease tumor suppressor/Epidermal growth factor receptor (Homo sapiens), P00533+P40337 [L858R,T790M]; experiment: Protac activity at VHL/EGFR L858R/T790M mutant in human NCI-H1975 cells assessed as induction of EGFR degradation at 10 nM incubated for 24 hrs by Western blot analysis relative to control; format: cell-based
# [10] = tested on: HCC827; experiment: Antiproliferative activity against human HCC827 cells expressing EGFR deletion19 mutant assessed as inhibition of cell proliferation incubated for 72 hrs by MTT assay; format: functional, cell-based; conditions: HCC827, 72 h
# [11] = tested on: von Hippel-Lindau disease tumor suppressor/Epidermal growth factor receptor (Homo sapiens), P00533+P40337 [UNDEFINED MUTATION]; experiment: Protac activity at VHL/EGFR/deletion19 in human HCC827 cells assessed as induction of EGFR degradation at 3 nM incubated for 24 hrs by Western blot analysis relative to control; format: cell-based
# [12] = molecular target: T1, von Hippel-Lindau disease tumor suppressor/Epidermal growth factor receptor; experiment: Protac activity at VHL/EGFR deletion19 mutant in human HCC827 cells assessed as induction of EGFR degradation; format: cell-based
# [13] = tested on: HCC827; experiment: Antiproliferative activity against human HCC827 cells expressing EGFR deletion19 mutant assessed as inhibition of cell proliferation; format: functional, cell-based
# [14] = tested on: von Hippel-Lindau disease tumor suppressor/Epidermal growth factor receptor (Homo sapiens), P00533+P40337 [UNDEFINED MUTATION]; experiment: Protac activity at VHL/EGFR/deletion19 in human HCC827 cells assessed as induction of EGFR degradation at 1 to 30 nM incubated for 24 hrs by Western blot analysis; format: cell-based; conditions: dose 1-30 nM
# [15] = molecular target: T1, von Hippel-Lindau disease tumor suppressor/Epidermal growth factor receptor; experiment: Protac activity at VHL/EGFR deletion19 mutant in human HCC827 cells assessed as induction of EGFR degradation under starvation condition; format: cell-based
# [16] = molecular target: von Hippel-Lindau disease tumor suppressor/Epidermal growth factor receptor (Homo sapiens, UniProt P00533+P40337, L858R); experiment: Protac activity at VHL/EGFR L858R mutant (unknown origin) assessed as inhibition of EGFR incubated for 40 mins in presence of ATP by Kinase Glo luminescence assay; format: protein assay
# [17] = molecular target: von Hippel-Lindau disease tumor suppressor/Epidermal growth factor receptor (Homo sapiens, UniProt P00533+P40337, L858R/T790M); experiment: Protac activity at VHL/EGFR L858R/T790M mutant (unknown origin) assessed as inhibition of EGFR incubated for 40 mins in presence of ATP by Kinase Glo luminescence assay; format: protein assay
# [18] = tested on: PC-9; experiment: Antiproliferative activity against human PC-9 cells expressing EGFR deletion19/T790M/C797S mutant assessed as reduction on cell growth growth incubated for 72 hrs by MTT assay; format: functional, cell-based; conditions: PC-9, 72 h
# [19] = tested on: BaF3; experiment: Antiproliferative activity against mouse BaF3 cells expressing EGFR deletion19/T790M/C797S mutant assessed as reduction on cell growth incubated for 72 hrs by MTT assay; format: toxicity, cell-based; conditions: BaF3, 72 h
# [20] = tested on: BaF3; experiment: Antiproliferative activity against mouse BaF3 cells expressing EGFR L858R/T790M/C797S mutant assessed as reduction on cell growth incubated for 72 hrs by MTT assay; format: toxicity, cell-based; conditions: BaF3, 72 h
# [21] = tested on: NCI-H1975; experiment: Antiproliferative activity against human NCI-H1975 cells expressing EGFR L858R/T790M/C797S mutant assessed as reduction on cell growth incubated for 72 hrs by MTT assay; format: functional, cell-based; conditions: NCI-H1975, 72 h
# [22] = tested on: HCC827; experiment: Inhibition of colony formation in human HCC827 cells at 1 to 30 nM incubated for 10 days by crystal violet based assay; format: functional, cell-based; conditions: dose 1-30 nM, time 10.0 day
# [23] = tested on: NCI-H1975; experiment: Inhibition of colony formation in human NCI-H1975 cells at 1 to 30 nM incubated for 10 days by crystal violet based assay; format: functional, cell-based; conditions: dose 1-30 nM, time 10.0 day
# [24] = tested on: Protein cereblon/Epidermal growth factor receptor (Homo sapiens), P00533+Q96SW2 [L858R,T790M]; experiment: Protac activity at CRBN/EGFR L858R/T790M mutant in mouse BaF3 cells assessed as induction of EGFR degradation at 100 nM; format: cell-based
# [25] = tested on: Protein cereblon/Epidermal growth factor receptor (Homo sapiens), P00533+Q96SW2 [L858R,T790M,C797S]; experiment: Protac activity at CRBN/EGFR L858R/T790M/C797S mutant in mouse BaF3 cells assessed as induction of EGFR degradation at 100 nM; format: cell-based
# [26] = tested on: von Hippel-Lindau disease tumor suppressor/Epidermal growth factor receptor (Homo sapiens), P00533+P40337 [L858R,T790M]; experiment: Protac activity at VHL/[…] cells assessed as induction of EGFR degradation at 1000 nM incubated for 24 hrs by Western blot analysis relative to control; format: cell-based
# [27] = tested on: von Hippel-Lindau disease tumor suppressor/Epidermal growth factor receptor (Homo sapiens), P00533+P40337 [L858R,T790M]; experiment: Protac activity at VHL/EGFR L858R/T790M mutant in human NCI-H1975 cells assessed as induction of EGFR degradation at 1000 nM incubated for 24 hrs by Western blot analysis relative to control; format: cell-based
# [28] = tested on: von Hippel-Lindau disease tumor suppressor/Epidermal growth factor receptor (Homo sapiens), P00533+P40337 [L858R,T790M]; experiment: Protac activity at VHL/[…] cells assessed as induction of EGFR degradation at 100 nM incubated for 24 hrs by Western blot analysis relative to control; format: cell-based
smiles,measurement,setting,value
C=CC(=O)Nc1cc2c(Nc3ccc(F)c(Cl)c3)ncnc2cc1OCCCN1CCN(C(=O)CCCCCCNc2cccc3c2C(=O)N(C2CCC(=O)NC2=O)C3=O)CC1 (stereo not drawn),DC50,[1],100 nM
same,DC50,[2],< 30 nM
same,IC50,[3],26.5 nM
C=CC(=O)N1CC[C@H](n2c(Nc3ccccc3)nc3cnc(Nc4ccc(N5CCN(CCCCCCC(=O)N[C@H](C(=O)N6C[C@H](O)C[C@H]6C(=O)NCc6ccc(-c7scnc7C)cc6)C(C)(C)C)CC5)cc4)nc32)C1,IC50,[4],1.86 nM
same,Activity,[5],81%
same,Activity,[6],79%
same,IC50,[7],> 10000 nM
same,IC50,[8],44 nM
same,Activity,[9],38%
same,IC50,[10],1.66 nM
same,Activity,[11],65%
Cc1ncsc1-c1ccc(CNC(=O)[C@@H]2C[C@@H](O)CN2C(=O)[C@@H](NC(=O)CCCCCCN2CCN(c3ccc(Nc4ncc5nc(Nc6ccccc6)n(C6CCCC6)c5n4)cc3)CC2)C(C)(C)C)cc1,DC50,[12],0.51 nM
same,IC50,[13],0.76 nM
CCC(=O)N1CCC[C@H](n2c(Nc3ccccc3)nc3cnc(Nc4ccc(N5CCN(CCCCCCCC(=O)N[C@H](C(=O)N6C[C@H](O)C[C@H]6C(=O)N[C@@H](C)c6ccc(-c7scnc7C)cc6)C(C)(C)C)CC5)cc4)nc32)C1,IC50,[8],2900 nM
same,Activity,[14],Active
same,IC50,[10],5.39 nM
COc1cc2ncnc(Nc3ccc(F)c(Cl)c3)c2cc1OCCCN1CCN(C(=O)CCCCCCCCCC(=O)N[C@H](C(=O)N2C[C@H](O)C[C@H]2C(=O)NCc2ccc(-c3scnc3C)cc2)C(C)(C)C)CC1,DC50,[15],5 nM
C=CC(=O)N1CCC[C@H](n2c(Nc3ccccc3)nc3cnc(Nc4ccc(N5CCN(C)CC5)cc4)nc32)C1,Activity,[6],< 20%
same,IC50,[7],7090 nM
same,IC50,[8],12 nM
same,IC50,[16],21 nM
same,IC50,[17],38 nM
same,IC50,[10],0.33 nM
O=C1CCC(N2Cc3c(NC(=O)CCCCCCN4CCN(c5ccc(Nc6cc7c(N8CCC(CO)CC8)nc(Nc8ccc(F)cc8)nc7cn6)nc5)CC4)cccc3C2=O)C(=O)N1 (stereo not drawn),DC50,[12],34.8 nM
same,IC50,[13],220 nM
COc1cc(N2CCC(N3CCN(C)CC3)CC2)c(C)cc1Nc1ncc(Br)c(Nc2ccc3nccnc3c2P(C)(C)=O)n1,IC50,[18],45 nM
same,IC50,[19],17 nM
same,IC50,[20],21 nM
same,IC50,[21],910 nM
C=CC(=O)N1CCC[C@H](n2c(Nc3ccccc3)nc3cnc(Nc4ccc(N5CCN(CCCCCCCC(=O)N[C@H](C(=O)N6C[C@H](O)C[C@H]6C(=O)NCc6ccc(-c7scnc7C)cc6)C(C)(C)C)CC5)cc4)nc32)C1,Activity,[5],78%
same,Activity,[6],74%
same,inhibition,[22],Active
same,IC50,[7],> 10000 nM
same,IC50,[8],39 nM
same,inhibition,[23],Active
same,Activity,[9],< 20%
same,IC50,[10],2.55 nM
same,Activity,[11],69%
COc1cc2ncnc(Nc3ccc(F)c(Cl)c3)c2cc1OCCCCCOCCOCCC(=O)N[C@H](C(=O)N1C[C@H](O)C[C@H]1C(=O)NCc1ccc(-c2scnc2C)cc1)C(C)(C)C,DC50,[12],11.7 nM
C=CC(=O)N1CC[C@H](n2c(Nc3ccccc3)nc3cnc(Nc4ccc(N5CCN(C)CC5)cc4)nc32)C1,IC50,[7],2900 nM
same,IC50,[8],15 nM
same,IC50,[16],10 nM
same,IC50,[17],23 nM
same,IC50,[10],0.47 nM
C=CC(=O)N1CC[C@@H](n2c(Nc3ccccc3)nc3cnc(Nc4ccc(N5CCN(CCCCCCC(=O)N[C@H](C(=O)N6C[C@H](O)C[C@H]6C(=O)NCc6ccc(-c7scnc7C)cc6)C(C)(C)C)CC5)cc4)nc32)C1,IC50,[4],12.4 nM
same,IC50,[8],550 nM
C=CC(=O)N1CCC[C@@H](n2c(Nc3ccccc3)nc3cnc(Nc4ccc(N5CCN(CCCCCCCC(=O)N[C@H](C(=O)N6C[C@H](O)C[C@H]6C(=O)N[C@@H](C)c6ccc(-c7scnc7C)cc6)C(C)(C)C)CC5)cc4)nc32)C1,IC50,[4],6.49 nM
same,IC50,[8],1060 nM
O=C1CCC(N2C(=O)c3cccc(NCCOCCOCCOCCN4CCN(c5ccc(-c6ccc7c(c6)C(=O)N(C(C(=O)Nc6nccs6)c6ccccc6)C7)cn5)CC4)c3C2=O)C(=O)N1 (stereo not drawn),Activity,[24],59%
same,Activity,[25],74%
COc1cc(N(C)CCN(C)C)c(NC(=O)/C(C#N)=C/C(C)(C)NC(=O)CCCCCCC(=O)N[C@H](C(=O)N2C[C@H](O)C[C@H]2C(=O)NCc2ccc(-c3scnc3C)cc2)C(C)(C)C)cc1Nc1nccc(-c2cn(C)c3ccccc23)n1,Activity,[6],< 20%
same,IC50,[8],2360 nM
same,IC50,[17],857 nM
same,Activity,[26],26%
same,IC50,[10],544 nM
same,Activity,[27],< 20%
same,Activity,[28],< 20%
C=CC(=O)Nc1cccc(-n2c(=O)cc(C)c3cnc(Nc4ccc(N5CCN(CCCCCC(=O)N[C@H](C(=O)N6C[C@H](O)C[C@H]6C(=O)NCc6ccc(-c7scnc7C)cc6)C(C)(C)C)CC5)cc4OC)nc32)c1,IC50,[3],510 nM
